Some test systems named below: CAKI-1 renal; COLO 205 colon; DU-145 prostate; HCC-2998 colon; HS 578T breast; IGROV1 ovarian; M14 melanoma; MALME-3M melanoma; OVCAR-8 ovarian; RXF 393 renal; SF-539 CNS; SK-MEL-28 melanoma; SK-MEL-5 melanoma; SK-OV-3 ovarian; T-47D breast; TK-10 renal; UACC-257 melanoma; UACC-62 melanoma; SR leukemia.
Holding throughout (assay): NCI anticancer screen, dose series, 48 h

SMILES strings stand for the structures.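 How tested: cells in 96-well plates exposed to compound for 48 hours at five concentrations. TGI is the concentration that stops growth completely.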

As to `Cc1[nH]c(C)c(CN(C)C)c1CN(C)C`, the TGI in the assay on CAKI-1 renal, in the assay on COLO 205 colon, with DU-145 prostate, in the assay with HCC-2998 colon, in the assay on HS 578T breast and with IGROV1 ovarian was > 100 µM each time. For the same compound, the TGI in the assay on M14 melanoma, with MALME-3M melanoma, with OVCAR-8 ovarian, with RXF 393 renal, in the assay on SF-539 CNS and in the assay on SK-MEL-28 melanoma was > 100 µM in each case. Further, the TGI in the assay on SK-MEL-5 melanoma, in the assay on SK-OV-3 ovarian, in the assay with T-47D breast, with TK-10 renal, in the assay with UACC-257 melanoma and in the assay on UACC-62 melanoma was > 100 µM throughout.

For the compound `CC(O)CNC(=O)Nc1c(C(F)(F)F)cc(-c2ccccc2)[nH]c1=O` (configuration not stated), the TGI in the assay with CAKI-1 renal, in the assay with COLO 205 colon, in the assay on DU-145 prostate, with HCC-2998 colon, with HS 578T breast and with IGROV1 ovarian was > 100 µM each time. Moreover, the TGI in the assay on M14 melanoma, in the assay on MALME-3M melanoma, in the assay on OVCAR-8 ovarian, in the assay on RXF 393 renal, in the assay on SK-MEL-28 melanoma and in the assay with SK-MEL-5 melanoma was > 100 µM throughout. Also, the TGI with SK-OV-3 ovarian, with T-47D breast, in the assay on TK-10 renal, with UACC-257 melanoma and in the assay with UACC-62 melanoma was > 100 µM throughout.

As to `CN(C)c1ccc(C=Nc2ccc(-c3nc4ccccc4s3)cc2)cc1`, the TGI in the assay with CAKI-1 renal is > 100 µM; in the assay on COLO 205 colon, 62.3 µM; in the assay on DU-145 prostate it was > 100 µM; in the assay with HCC-2998 colon, 44.5 µM; in the assay with IGROV1 ovarian, > 100 µM; in the assay with M14 melanoma, > 100 µM. The TGI in the assay with MALME-3M melanoma is 95.7 µM; with OVCAR-8 ovarian, > 100 µM; in the assay with RXF 393 renal it was 52.2 µM; in the assay on SF-539 CNS it was > 100 µM; in the assay with SK-MEL-28 melanoma, > 100 µM; in the assay on SK-MEL-5 melanoma, 44.8 µM. Moreover, the TGI in the assay with SK-OV-3 ovarian was > 100 µM; in the assay with SR leukemia, > 100 µM; in the assay with T-47D breast, 73.9 µM; with TK-10 renal it was 75.8 µM; in the assay on UACC-257 melanoma it was 82.8 µM; in the assay with UACC-62 melanoma, 31.7 µM.

`O=c1[nH]c2c(c(=O)[nH]1)SC(c1ccccc1)C2` (configuration not stated): the TGI in the assay on CAKI-1 renal, in the assay with COLO 205 colon, in the assay with DU-145 prostate, with HCC-2998 colon, with HS 578T breast and in the assay on IGROV1 ovarian was > 100 µM in each case. For the same compound, the TGI in the assay on M14 melanoma, with MALME-3M melanoma, in the assay with OVCAR-8 ovarian, in the assay on RXF 393 renal, in the assay with SF-539 CNS and with SK-MEL-28 melanoma was > 100 µM each time. The TGI in the assay on SK-MEL-5 melanoma and in the assay with UACC-257 melanoma was > 100 µM each time.

Take `CCOC(=O)C1=C(C)N(c2ccc(Cl)cc2)C2(O)C=CC(=O)C3=C(O)c4ccccc4C(=O)C312` (configuration not stated): the TGI in the assay on CAKI-1 renal was 9.21 µM; with COLO 205 colon it was 11.7 µM; with DU-145 prostate, 21.1 µM; with HS 578T breast, 23.1 µM; with IGROV1 ovarian, 12.9 µM; in the assay with M14 melanoma it was 12.4 µM. The TGI in the assay with MALME-3M melanoma was found to be 4.53 µM; in the assay with OVCAR-8 ovarian, 19.1 µM; with SF-539 CNS, 18.1 µM; with SK-MEL-5 melanoma, 20.4 µM; in the assay on SK-OV-3 ovarian, 30.7 µM; in the assay on T-47D breast, 15.8 µM. The TGI was found to be 8.03 µM with TK-10 renal, 42.7 µM with UACC-257 melanoma and 9.01 µM with UACC-62 melanoma.

As to `COC(=O)C1(C(=O)OC)N=C(C)OC1c1ccccc1O` (configuration not stated), the TGI in the assay on CAKI-1 renal, in the assay with COLO 205 colon, with DU-145 prostate, in the assay with HCC-2998 colon, with IGROV1 ovarian and with M14 melanoma was > 100 µM each time. The TGI in the assay with OVCAR-8 ovarian, in the assay with RXF 393 renal, in the assay with SK-MEL-28 melanoma, in the assay with SK-MEL-5 melanoma, in the assay with SK-OV-3 ovarian and in the assay with SR leukemia was > 100 µM each time. Besides, the TGI in the assay on T-47D breast, in the assay with TK-10 renal, with UACC-257 melanoma and with UACC-62 melanoma was > 100 µM each time.

As for `O=C1Nc2ccc(Br)cc2/C1=N/S(=O)(=O)O`, the TGI with CAKI-1 renal, in the assay on COLO 205 colon, in the assay on DU-145 prostate, in the assay with HCC-2998 colon, in the assay on HS 578T breast and in the assay with IGROV1 ovarian was > 100 µM throughout. Further, the TGI with M14 melanoma was > 100 µM; in the assay on MALME-3M melanoma, 71.4 µM; in the assay on OVCAR-8 ovarian, > 100 µM; in the assay with RXF 393 renal, > 100 µM; in the assay on SK-MEL-28 melanoma it was > 100 µM; in the assay with SK-MEL-5 melanoma it was 29.6 µM. The TGI was > 100 µM in the assay on SK-OV-3 ovarian; > 100 µM in the assay on T-47D breast; 57.1 µM with TK-10 renal; 31.4 µM in the assay on UACC-257 melanoma; 40.3 µM in the assay on UACC-62 melanoma.

With `Clc1cccc(-c2nc3cccc4c3n2Cc2ncccc2-4)c1`, the TGI in the assay on CAKI-1 renal, with COLO 205 colon, with DU-145 prostate, in the assay with HCC-2998 colon, in the assay with IGROV1 ovarian and in the assay on M14 melanoma was > 100 µM each time. The TGI with MALME-3M melanoma, with OVCAR-8 ovarian, with RXF 393 renal, with SF-539 CNS, in the assay with SK-MEL-28 melanoma and in the assay with SK-OV-3 ovarian was > 100 µM throughout. Moreover, the TGI in the assay on SR leukemia, in the assay with T-47D breast, with TK-10 renal, in the assay on UACC-257 melanoma and with UACC-62 melanoma was > 100 µM each time.
